Measurements: patent US11730705B2, “Small molecule CMKLR1 antagonists in inflammatory disease” (The Board of Trustees of the Leland Stanford Junior …, priority 2019, dated 2023)
Like-named read-outs stand apart in the source and are kept apart here.

Columns and labels:
EAE in C57BL/6 mice = test: EAE induced by MOG35-55/CFA immunization; format: in vivo, mouse; settings: FIG. 1C; 10 mg/kg daily; compared with Tecfidera or vehicle control
Description: FIG. 1A-1D. […] (FIG. 1D) The integrated clinical score over time for each animal was calculated as area under the curve (AUC).
EAE. […] CFA consisted of 5 mg/ml mTB (Mycobacterium-tuberculosis H37 Ra, BD Difco) in IFA (Incomplete Freund's Adjuvant, Sigma). MOG35-55 was reconstituted at 2 mg/ml in PBS. Mice also received 200 ng pertussis toxin (List Biological Laboratories, Inc) by i.p. injection at the time of immunization and two days later. […] For a direct comparison to α-NETA, the DMF and compound doses were also 10 mg/kg in 10% captisol. Mice were monitored daily for clinical disease and scored (0=normal/healthy, 1=limp tail, 2=hindlimb weakness, 3=hindlimb paralysis, 4=hindlimb and forelimb paralysis, 5=moribund/dead).

[1] = 5 μg into the uterine horn on days 6, 9 and 12 following fertilization; cited from earlier work
Cyp2B6 = molecular target: T1, Cyp2B6 (Homo sapiens, UniProt P20813); test: Cyp enzyme inhibition, human liver microsomes; format: in vitro ADME; settings: 30 min pre-incubation
T1 construct: Human liver microsomes were pre-incubated with 7 concentrations; tissue Cyprotex/Evotec AG; host or cells: human liver microsomes
T1 sequence (P20813 1-491): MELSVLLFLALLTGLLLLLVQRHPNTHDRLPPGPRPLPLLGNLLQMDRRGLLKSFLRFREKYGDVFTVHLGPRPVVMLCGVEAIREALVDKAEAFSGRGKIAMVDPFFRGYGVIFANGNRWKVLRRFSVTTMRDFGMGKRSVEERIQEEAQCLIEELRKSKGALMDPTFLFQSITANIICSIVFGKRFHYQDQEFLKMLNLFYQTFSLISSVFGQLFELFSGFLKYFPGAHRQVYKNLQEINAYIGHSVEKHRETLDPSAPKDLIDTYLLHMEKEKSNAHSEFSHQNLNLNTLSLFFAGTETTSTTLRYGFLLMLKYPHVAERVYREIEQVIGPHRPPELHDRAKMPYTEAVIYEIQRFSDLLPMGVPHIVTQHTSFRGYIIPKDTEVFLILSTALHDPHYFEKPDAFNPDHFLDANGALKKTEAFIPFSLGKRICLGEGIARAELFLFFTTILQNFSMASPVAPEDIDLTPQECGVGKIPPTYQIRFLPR
Description: Cyp enzyme inhibition. Human liver microsomes were pre-incubated with 7 concentrations ([…], duplicate wells) of α-NETA for 30 min.

CMKLR1 = molecular target: T2, CMKLR1 (Homo sapiens, UniProt Q99788); test: β-arrestin recruitment assay (chemerin-mediated β-arrestin2 association with CMKLR1); format: cell-based
T2 construct: host or cells: CHO-K1 (PathHunter)
T2 sequence (Q99788 1-373): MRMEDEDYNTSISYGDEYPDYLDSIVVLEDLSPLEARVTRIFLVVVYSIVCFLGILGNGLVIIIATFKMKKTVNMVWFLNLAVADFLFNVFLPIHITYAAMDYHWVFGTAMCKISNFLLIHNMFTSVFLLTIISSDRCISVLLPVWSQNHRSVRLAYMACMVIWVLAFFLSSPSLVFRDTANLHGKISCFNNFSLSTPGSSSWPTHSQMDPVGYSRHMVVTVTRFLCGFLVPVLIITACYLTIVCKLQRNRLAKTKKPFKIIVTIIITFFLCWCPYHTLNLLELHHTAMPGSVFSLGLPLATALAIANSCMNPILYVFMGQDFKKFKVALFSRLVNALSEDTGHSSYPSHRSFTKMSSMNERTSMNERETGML
Description: FIG. 15A-15D. […] IC50 values were determined based on 6-point dose-response curves for each compound. (FIG. 15A) α-NETA. […] (FIG. 15A-15C) mean±SEM, n=3-18 independent experiments. […] 0.2 ml each compound (in 10% captisol) or vehicle control was administered by oral gavage beginning one day prior to psoriasis induction. Back skin thickness was measured daily and normalized to day 0. mean±SEM, n=10 mice for vehicle and α-NETA groups pooled from two independent trials; n=3 mice for (27) and (6) from one trial.
Cell culture. […] DiscoverX PathHunter® CHO-K1 CMKLR1 β-Arrestin Cells were grown in RPMI lacking phenol red (Gibco, Life Technologies), supplemented with L-glutamine, penicillin-streptomycin, sodium pyruvate, non-essential amino acid, BCS, hygromycin, and G418-sulfate.
β-arrestin recruitment assay. CMKLR1-CHO-β-Arrestin cells were seeded in 96 well plates at 1×10^5 cell/ml-100 ul/well and incubated overnight at 37° C., 5% CO2. The next day, media was removed and cells were pre-incubated in PBS with α-NETA or test compound (95 ul/well) in a 6 point dose response curve from 100 μM to 0.3 μM for 10 min at RT. (α-NETA and test compounds were reconstituted in DMSO; final DMSO concentration in each well was 0.1%). After 10 min, 5 ul of recombinant human chemerin (R&D Systems) at a final concentration of 20 nM was added to each well. Plates were incubated for 90 min at 37° C., 5% CO2. Media was then removed and 50 ul of chemiluminescent substrate (Tropix Gal-Screen, Applied Biosciences) was added. The plate was incubated for 1 hr at RT and luminescence was detected using the SpectraMax M5 plate reader (Molecular Devices). For each independent trial (single replicate dose curves), data was normalized to the maximum signal per compound tested and an IC50 value was generated using GraphPad Prism software. The average IC50 value for n independent trials (as specified in the table) is reported.

[2] = tested on: Salmonella typhimurium (TA100); test: Ames test for genotoxicity; settings: concentrations up to at least 10 uM
Cyp2D6 = molecular target: T3, Cyp2D6 (Homo sapiens, UniProt P10635); settings: PubChem BioAssay ID 1461; read-out: Cyp Inhibition IC50 (μM), Cyp2D6; cited from earlier work
T3 construct: tissue Cyprotex/Evotec AG; host or cells: human liver microsomes
T3 sequence (P10635 whole entry): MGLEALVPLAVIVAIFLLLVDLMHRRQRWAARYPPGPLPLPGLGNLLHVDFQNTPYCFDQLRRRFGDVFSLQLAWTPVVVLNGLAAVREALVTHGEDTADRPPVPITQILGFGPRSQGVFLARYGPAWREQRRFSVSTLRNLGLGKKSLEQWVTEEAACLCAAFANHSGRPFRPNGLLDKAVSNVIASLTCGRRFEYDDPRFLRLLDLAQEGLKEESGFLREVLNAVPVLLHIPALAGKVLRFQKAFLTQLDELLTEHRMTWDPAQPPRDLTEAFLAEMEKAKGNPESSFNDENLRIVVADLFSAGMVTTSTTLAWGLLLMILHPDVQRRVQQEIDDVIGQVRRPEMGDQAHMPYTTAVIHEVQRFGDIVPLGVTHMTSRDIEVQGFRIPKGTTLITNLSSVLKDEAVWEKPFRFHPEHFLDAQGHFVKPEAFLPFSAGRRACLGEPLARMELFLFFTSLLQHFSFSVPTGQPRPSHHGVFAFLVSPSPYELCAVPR

[3] = molecular target: Pregnane X receptor (PXR) (Homo sapiens, UniProt O75469); test: Cyp induction (PXR luciferase reporter); format: cell-based; settings: concentrations up to 50 uM
Pregnane X receptor (PXR), sequence (O75469 whole entry): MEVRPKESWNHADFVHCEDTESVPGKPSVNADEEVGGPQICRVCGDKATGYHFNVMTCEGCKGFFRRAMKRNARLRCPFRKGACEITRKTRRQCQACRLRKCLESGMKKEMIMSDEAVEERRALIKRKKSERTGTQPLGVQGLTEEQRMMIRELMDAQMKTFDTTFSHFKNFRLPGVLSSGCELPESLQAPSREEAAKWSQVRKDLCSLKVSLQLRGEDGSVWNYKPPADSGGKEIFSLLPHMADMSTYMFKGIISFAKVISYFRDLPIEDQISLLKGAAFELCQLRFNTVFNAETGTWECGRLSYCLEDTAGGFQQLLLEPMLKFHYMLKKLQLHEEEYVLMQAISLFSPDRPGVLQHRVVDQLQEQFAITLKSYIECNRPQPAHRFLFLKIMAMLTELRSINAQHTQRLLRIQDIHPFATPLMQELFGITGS
Description: Pregnane X receptor (PXR) activation was used as a marker of Cyp induction.
Pregnane X receptor (PXR) activation was used as a marker of Cyp induction. An engineered human hepatoma cell line with a PXR luciferase reporter was incubated with the indicated concentrations of α-NETA, Rifampicin (positive control), or DMSO (negative control), and luciferase activity assessed (Cyprotex/Evotec AG).

## C[N+](C)(C)CCC(=O)c1cccc2ccccc12.[I-] [α-NETA, 2-(α-naphthoyl) ethyltrimethylammonium iodide]
EAE in C57BL/6 mice
  severity of clinical EAE: significantly suppressed
[1]
  embryo resorption: significant embryo resorption
Cyp2B6
  IC50: 0.12 µM
CMKLR1; Table 2, tertiary amines, chemerin 20 nM, CHO transfectants, read-out: β-arrestin IC50 μM mean ± SEM (n)
  IC50: 4.9 ± 1.5 µM
CMKLR1; initial studies, 4-5 years earlier, different source of α-NETA, read-out: β-arrestin2 inhibition IC50
  IC50: 0.38 µM
CMKLR1; values given in running text b220, read-out: β-arrestin2 assay IC50
  IC50: 2.3 µM
[2]
  mutagenesis (reversion of an obligate histidine mutation): did not induce mutagenesis
Cyp2D6
  IC50: > 10 µM
[3]
  PXR activation (marker of Cyp induction): did not induce substantial PXR activity
